Results published in paper PMC3914206.
Several values for one entry are separate records, joined by “and”; a condition that tells them apart may be missing. Equal entries are not always repeated.

Tests used:
panel of 442 kinases = target: T1, panel of 442 kinases (Homo sapiens, UniProt Q5S007); type: binding; conditions: Compound Concentration 10 µM
T1 construct: purchased KINOMEscan
Source text: We assessed the selectivity of members of this scaffold using the KINOMEscan methodology across a near comprehensive panel of 442 kinases [[18,27]].

ERK5 [1] = target: T2, ERK5 (Homo sapiens, UniProt Q13164); assay: ERK5 autophosphorylation assay (EGF-stimulated, mobility shift immunoblot); type: cell-based; parameters: endogenous in cells; host or cells: HeLa; conditions: inhibition of EGF-stimulated autophosphorylation of ERK5 in HeLa cells; read-out: Cellular EC50 (ERK5)
Source text: Proteins from total cell lysates were resolved by 6% sodium dodecyl sulfate (SDS)-poly-acrylamide gel electrophoresis (PAGE), transferred to nitrocellulose membrane, blocked in 5% nonfat milk, and blotted with anti-ERK5 antibody.

ERK5 [2] = target: T2, ERK5; assay: ERK5 kinase activity in vitro assay (32P-ATP, PIMtide substrate); type: biochemical; parameters: hexahistidine (His6) (N); made in house; host or cells: Spodoptera frugiperda 21 cells (baculovirus, Bac-to-Bac); conditions: in vitro assay, recombinant active ERK5; read-out: Enzymatic IC50 (ERK5)
Protocol: pFastBAC vector encoding N-terminal hexahistidine-tagged human ERK5 and HA-tagged human MEK5-DD (constitutively active) were used to generate recombinant baculovirus using the Bac-to-Bac system (Invitrogen). […] His-tagged ERK5 was purified as described for His-tagged BRSK1[33], using 5 mL Ni-NTA-agarose resin (Qiagen) followed by gel filtration chromatography on Superdex 200HR column on an AKTA system (GE Healthcare).
Assays were carried out for 20 min at 30 °C, terminated by applying the reaction mixture onto p81 paper and the incorporated radioactivity measured as described previously.

[3] = target: T3, selected panels of kinases in HeLa and PC3 cell lysates (Homo sapiens, UniProt P52333); assay: KiNativ chemical proteomics profiling in HeLa and PC3 cell lysates; type: binding; conditions: 10 uM; proteome HEL; peptide IADFGLAkLLPLDKDYYVVR; labeling site Activation Loop
T3 construct: endogenous in cells; host or cells: HeLa and PC3 cell lysates

[4] = target: T4, selected panels of kinases in HeLa and PC3 cell lysates (Homo sapiens, UniProt Q14164); assay: as above; type: binding; conditions: 10 uM; proteome HEL; peptide SGELVAVk[…]; labeling site Lys1
T4 construct: endogenous in cells; host or cells: HeLa and PC3 cell lysates

[5] = target: T5, selected panels of kinases in HeLa and PC3 cell lysates (Homo sapiens, UniProt Q96BR1); assay: as above; type: binding; conditions: 10 uM; SGK3; peptide FYAVkVLQK; proteome HEL; labeling site Lys1
T5 construct: endogenous in cells; host or cells: HeLa and PC3 cell lysates

[6] = target: T6, selected panels of kinases in HeLa and PC3 cell lysates (Homo sapiens, UniProt Q9Y2H1); assay: as above; type: binding; conditions: 10 uM; proteome PC3; peptide DTGHIYAMkILR; labeling site Lys1
T6 construct: endogenous in cells; host or cells: HeLa and PC3 cell lysates

[7] = target: T7, selected panels of kinases in HeLa and PC3 cell lysates (Homo sapiens, UniProt Q9NRH2); assay: as above; type: binding; conditions: 10 uM; SNRK; peptide DLkPENVVFFEK; proteome PC3; labeling site Lys2
T7 construct: endogenous in cells; host or cells: HeLa and PC3 cell lysates

[8] = target: T8, selected panels of kinases in HeLa and PC3 cell lysates (Homo sapiens, UniProt P53350); assay: as above; type: binding; conditions: 10 uM; PLK1; peptide DLk[…]; proteome HEL; labeling site Lys2
T8 construct: endogenous in cells; host or cells: HeLa and PC3 cell lysates

[9] = target: T9, selected panels of kinases in HeLa and PC3 cell lysates (Homo sapiens, UniProt Q86UE8); assay: as above; type: binding; conditions: 10 uM; TLK2; peptide YVAVkIHQLNK; proteome PC3; labeling site Lys1
T9 construct: endogenous in cells; host or cells: HeLa and PC3 cell lysates

[10] = target: T10, selected panels of kinases in HeLa and PC3 cell lysates (Homo sapiens, UniProt Q96Q15); assay: as above; type: binding; conditions: 10 uM; SMG1; peptide […]kTKPK; proteome HEL; labeling site ATP
T10 construct: endogenous in cells; host or cells: HeLa and PC3 cell lysates

[11] = target: T11, selected panels of kinases in HeLa and PC3 cell lysates (Homo sapiens, UniProt P07332); assay: as above; type: binding; conditions: 10 uM; proteome HEL; peptide […]kSCR; labeling site Lys1
T11 construct: endogenous in cells; host or cells: HeLa and PC3 cell lysates

[12] = target: T12, selected panels of kinases in HeLa and PC3 cell lysates (Homo sapiens, UniProt Q00535); assay: as above; type: binding; conditions: 10 uM, proteome PC3
T12 construct: endogenous in cells; host or cells: HeLa and PC3 cell lysates

[13] = target: T13, selected panels of kinases in HeLa and PC3 cell lysates (Homo sapiens, UniProt P48736); assay: as above; type: binding; conditions: 10 uM; PIK3CG; peptide KkPLWLEFK; proteome HEL; labeling site ATP
T13 construct: endogenous in cells; host or cells: HeLa and PC3 cell lysates

[14] = Pharmacokinetics after intravenous and oral delivery in mice; type: in vivo
Protocol: The pharmacokinetic properties of 26 were also evaluated following intravenous and oral delivery in mice.

[15] = peptide DLkPQNLLINR, labeling site Lys2
[16] = peptide ETHEIVALkR, labeling site Lys1
[17] = peptide […]kR, labeling site Lys1

T2 sequence (Q13164 whole entry): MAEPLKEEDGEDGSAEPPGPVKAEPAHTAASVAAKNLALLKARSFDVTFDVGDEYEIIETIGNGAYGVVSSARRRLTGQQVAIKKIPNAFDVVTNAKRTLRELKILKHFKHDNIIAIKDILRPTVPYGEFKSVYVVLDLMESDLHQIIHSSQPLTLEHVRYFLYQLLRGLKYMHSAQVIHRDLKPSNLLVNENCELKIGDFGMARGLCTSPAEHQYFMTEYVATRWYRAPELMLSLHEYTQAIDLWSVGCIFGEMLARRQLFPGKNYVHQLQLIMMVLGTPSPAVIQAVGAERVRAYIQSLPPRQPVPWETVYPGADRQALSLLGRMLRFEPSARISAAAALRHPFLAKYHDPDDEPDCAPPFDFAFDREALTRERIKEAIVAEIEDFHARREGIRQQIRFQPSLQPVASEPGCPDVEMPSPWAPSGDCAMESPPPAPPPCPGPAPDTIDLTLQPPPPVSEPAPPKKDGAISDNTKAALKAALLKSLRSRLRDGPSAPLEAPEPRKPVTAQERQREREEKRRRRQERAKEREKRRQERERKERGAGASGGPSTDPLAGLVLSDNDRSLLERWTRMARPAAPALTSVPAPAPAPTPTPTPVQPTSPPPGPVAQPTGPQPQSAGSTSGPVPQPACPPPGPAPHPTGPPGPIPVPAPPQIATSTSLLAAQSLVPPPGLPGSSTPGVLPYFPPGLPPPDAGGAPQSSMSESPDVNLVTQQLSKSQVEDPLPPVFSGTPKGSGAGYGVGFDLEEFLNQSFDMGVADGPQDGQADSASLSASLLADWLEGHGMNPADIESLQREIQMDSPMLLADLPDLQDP
T12 sequence (Q00535 whole entry): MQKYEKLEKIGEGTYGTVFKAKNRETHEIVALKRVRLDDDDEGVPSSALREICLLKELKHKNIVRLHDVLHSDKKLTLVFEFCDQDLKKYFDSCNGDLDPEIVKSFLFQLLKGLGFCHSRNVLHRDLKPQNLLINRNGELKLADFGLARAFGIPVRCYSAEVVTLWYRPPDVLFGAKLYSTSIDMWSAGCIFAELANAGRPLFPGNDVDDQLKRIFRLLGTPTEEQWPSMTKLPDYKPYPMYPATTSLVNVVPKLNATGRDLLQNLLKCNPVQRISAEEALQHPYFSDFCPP
T11 sequence (P07332 whole entry): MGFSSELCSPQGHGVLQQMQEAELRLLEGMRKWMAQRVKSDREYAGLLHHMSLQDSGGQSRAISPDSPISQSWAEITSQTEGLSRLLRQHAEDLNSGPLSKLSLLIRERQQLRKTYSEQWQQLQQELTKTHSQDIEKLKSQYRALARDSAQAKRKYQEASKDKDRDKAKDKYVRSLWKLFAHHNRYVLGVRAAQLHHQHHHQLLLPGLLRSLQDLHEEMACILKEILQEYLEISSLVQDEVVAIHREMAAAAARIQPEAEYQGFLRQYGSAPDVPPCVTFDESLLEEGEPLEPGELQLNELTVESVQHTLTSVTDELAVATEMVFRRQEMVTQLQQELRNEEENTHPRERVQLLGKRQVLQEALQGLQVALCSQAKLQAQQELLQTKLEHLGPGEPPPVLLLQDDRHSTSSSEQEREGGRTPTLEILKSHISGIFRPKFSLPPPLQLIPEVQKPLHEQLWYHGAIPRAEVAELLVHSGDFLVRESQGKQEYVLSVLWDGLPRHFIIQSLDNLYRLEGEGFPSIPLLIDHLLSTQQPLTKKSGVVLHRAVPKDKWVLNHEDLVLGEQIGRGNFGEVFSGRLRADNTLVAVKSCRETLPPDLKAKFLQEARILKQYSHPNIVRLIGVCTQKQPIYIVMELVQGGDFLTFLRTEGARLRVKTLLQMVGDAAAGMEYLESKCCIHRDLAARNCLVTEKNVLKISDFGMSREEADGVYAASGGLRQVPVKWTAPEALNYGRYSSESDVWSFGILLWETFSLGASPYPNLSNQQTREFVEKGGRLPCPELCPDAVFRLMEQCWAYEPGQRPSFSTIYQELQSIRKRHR
T9 sequence (Q86UE8 whole entry): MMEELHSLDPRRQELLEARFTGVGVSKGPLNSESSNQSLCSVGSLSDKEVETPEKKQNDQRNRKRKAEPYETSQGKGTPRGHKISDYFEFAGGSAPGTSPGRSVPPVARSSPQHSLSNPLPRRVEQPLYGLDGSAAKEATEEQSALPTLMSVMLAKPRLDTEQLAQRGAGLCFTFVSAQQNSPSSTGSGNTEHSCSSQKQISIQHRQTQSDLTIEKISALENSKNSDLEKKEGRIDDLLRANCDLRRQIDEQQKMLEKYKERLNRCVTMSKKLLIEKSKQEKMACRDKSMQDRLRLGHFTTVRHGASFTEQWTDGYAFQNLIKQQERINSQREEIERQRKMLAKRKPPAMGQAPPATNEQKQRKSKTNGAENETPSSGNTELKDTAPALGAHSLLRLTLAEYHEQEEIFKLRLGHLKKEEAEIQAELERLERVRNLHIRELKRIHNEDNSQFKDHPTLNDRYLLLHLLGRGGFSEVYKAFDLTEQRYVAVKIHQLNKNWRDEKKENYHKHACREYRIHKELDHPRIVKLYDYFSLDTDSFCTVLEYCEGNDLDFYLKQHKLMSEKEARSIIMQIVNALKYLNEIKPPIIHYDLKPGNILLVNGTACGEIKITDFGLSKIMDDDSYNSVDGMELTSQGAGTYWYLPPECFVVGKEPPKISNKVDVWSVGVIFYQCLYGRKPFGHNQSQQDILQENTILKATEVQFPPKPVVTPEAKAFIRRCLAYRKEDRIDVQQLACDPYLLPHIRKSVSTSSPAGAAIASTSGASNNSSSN
T6 sequence (Q9Y2H1 whole entry): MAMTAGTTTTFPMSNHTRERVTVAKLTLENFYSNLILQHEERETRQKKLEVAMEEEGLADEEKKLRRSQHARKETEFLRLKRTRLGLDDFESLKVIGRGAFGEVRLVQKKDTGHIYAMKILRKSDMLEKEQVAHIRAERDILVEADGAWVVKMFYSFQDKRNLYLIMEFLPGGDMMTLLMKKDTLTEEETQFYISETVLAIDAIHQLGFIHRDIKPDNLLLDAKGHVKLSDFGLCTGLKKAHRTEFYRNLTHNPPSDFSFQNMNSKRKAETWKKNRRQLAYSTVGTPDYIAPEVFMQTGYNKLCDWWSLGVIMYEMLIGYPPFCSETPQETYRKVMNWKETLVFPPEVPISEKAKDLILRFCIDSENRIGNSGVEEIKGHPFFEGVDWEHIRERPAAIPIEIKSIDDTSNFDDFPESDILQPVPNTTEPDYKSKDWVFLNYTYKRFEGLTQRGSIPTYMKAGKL
T3 sequence (P52333 whole entry): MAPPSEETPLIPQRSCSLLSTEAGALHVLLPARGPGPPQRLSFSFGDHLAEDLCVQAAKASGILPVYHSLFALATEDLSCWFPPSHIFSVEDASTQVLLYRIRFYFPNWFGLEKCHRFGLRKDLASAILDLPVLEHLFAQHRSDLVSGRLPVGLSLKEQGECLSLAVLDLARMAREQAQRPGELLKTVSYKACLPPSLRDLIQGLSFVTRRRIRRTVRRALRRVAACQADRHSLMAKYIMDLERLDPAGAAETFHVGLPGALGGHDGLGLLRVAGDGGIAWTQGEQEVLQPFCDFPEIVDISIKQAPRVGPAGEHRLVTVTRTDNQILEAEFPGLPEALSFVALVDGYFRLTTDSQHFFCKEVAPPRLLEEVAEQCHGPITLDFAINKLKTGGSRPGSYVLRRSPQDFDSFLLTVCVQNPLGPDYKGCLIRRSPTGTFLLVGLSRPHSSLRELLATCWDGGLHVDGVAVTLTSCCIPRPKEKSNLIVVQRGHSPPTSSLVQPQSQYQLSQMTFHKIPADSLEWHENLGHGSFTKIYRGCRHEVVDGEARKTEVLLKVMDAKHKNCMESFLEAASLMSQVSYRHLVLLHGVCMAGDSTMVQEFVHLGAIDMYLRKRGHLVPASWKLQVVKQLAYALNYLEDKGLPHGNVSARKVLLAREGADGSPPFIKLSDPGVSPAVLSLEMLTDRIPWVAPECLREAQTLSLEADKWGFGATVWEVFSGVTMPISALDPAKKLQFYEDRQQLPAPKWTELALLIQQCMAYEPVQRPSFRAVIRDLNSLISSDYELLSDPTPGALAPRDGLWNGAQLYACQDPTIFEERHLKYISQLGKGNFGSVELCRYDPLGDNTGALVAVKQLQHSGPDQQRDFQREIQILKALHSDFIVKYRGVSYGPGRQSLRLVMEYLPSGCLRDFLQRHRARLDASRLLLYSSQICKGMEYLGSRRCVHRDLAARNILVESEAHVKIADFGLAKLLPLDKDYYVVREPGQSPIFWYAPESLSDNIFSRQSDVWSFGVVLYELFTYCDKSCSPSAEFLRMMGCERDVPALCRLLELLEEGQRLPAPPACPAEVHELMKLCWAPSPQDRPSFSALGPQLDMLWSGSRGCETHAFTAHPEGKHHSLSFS
T8 sequence (P53350 whole entry): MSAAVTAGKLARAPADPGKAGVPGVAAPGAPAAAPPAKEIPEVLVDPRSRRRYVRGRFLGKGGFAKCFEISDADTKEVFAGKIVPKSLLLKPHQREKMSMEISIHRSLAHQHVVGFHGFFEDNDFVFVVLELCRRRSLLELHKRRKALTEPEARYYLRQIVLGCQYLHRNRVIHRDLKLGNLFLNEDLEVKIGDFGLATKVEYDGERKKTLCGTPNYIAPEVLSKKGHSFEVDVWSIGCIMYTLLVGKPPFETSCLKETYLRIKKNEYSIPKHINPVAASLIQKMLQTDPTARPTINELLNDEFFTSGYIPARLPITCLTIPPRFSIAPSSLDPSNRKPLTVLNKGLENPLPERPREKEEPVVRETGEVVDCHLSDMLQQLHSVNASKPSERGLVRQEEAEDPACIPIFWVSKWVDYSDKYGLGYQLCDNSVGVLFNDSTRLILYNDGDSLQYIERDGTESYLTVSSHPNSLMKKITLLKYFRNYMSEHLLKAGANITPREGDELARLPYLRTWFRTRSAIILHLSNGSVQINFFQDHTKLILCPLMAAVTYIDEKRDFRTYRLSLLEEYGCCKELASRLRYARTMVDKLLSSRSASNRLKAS

## COc1cc(C(=O)N2CCC(N3CCN(C)CC3)CC2)ccc1Nc1ncc2c(n1)N(C)c1ccccc1C(=O)N2C [15 (LRRK2-IN-1)]
Panel of 442 kinases
  KINOMEscan: LRRK2: 0

## COc1cc(C(=O)N2CCC(N3CCN(C)CC3)CC2)ccc1Nc1ncc2c(n1)N1CCc3cccc(c31)C(=O)N2C [Compound 24]
ERK5 [1]
  EC50: 260 ± 40 nM
ERK5 [2]
  IC50: 199 ± 12 nM

## COc1cc(C(=O)N2CCC(N3CCN(C)CC3)CC2)ccc1Nc1ncc2c(n1)N(C1CCCC1)c1ccccc1C(=O)N2C [Compound 25, 11-cyclopentyl-2-((2-methoxy-4-(4-(4-methylpiperazin-1-yl)piperidine-1-carbonyl)phenyl)amino)-5-methyl-5H-benzo[e]pyrimido[5,4-b][1,4]diazepin-6(11H)-one]
[3]
  % Inhibiton, JAK3 domain2: 31.8%
[4]
  % Inhibiton, IKKe: -20.7%
[5]
  % Inhibition SGK3: 8.2%
[6]
  % Inhibiton, NDR2: -0.235%
[7]
  % Inhibition SNRK: -15.7%
[8]
  % Inhibition PLK1: 9.6%
[9]
  % Inhibition TLK2: -3.6%
[10]
  % Inhibition SMG1: -21.0%
[11]
  % Inhibiton, FES: 6.0%
[12]; [15]
  % Inhibiton, CDK5: -8.6%
[12]; [16]
  % Inhibiton, CDK5: 9.7%
[12]; [17]
  % Inhibiton, CDK5: -1.2%
[13]
  % Inhibition PIK3CG: 11.8%
Panel of 442 kinases
  KINOMEscan: LRRK2: 28
ERK5 [1]
  EC50: 80 ± 20 nM
ERK5 [2]
  IC50: 82 ± 9 nM

## CCOc1cc(C(=O)N2CCC(N3CCN(C)CC3)CC2)ccc1Nc1ncc2c(n1)N(C1CCCC1)c1ccccc1C(=O)N2C [Compound 26]
[3]
  % Inhibiton, JAK3 domain2: ~53.9%
[4]
  % Inhibiton, IKKe: 8.6%
[5]
  % Inhibition SGK3: 25.5%
[6]
  % Inhibiton, NDR2: 8.2%
[7]
  % Inhibition SNRK: -6.9%
[8]
  % Inhibition PLK1: 23.9%
[9]
  % Inhibition TLK2: -11.7%
[10]
  % Inhibition SMG1: -4.8%
[11]
  % Inhibiton, FES: 4.1%
[12]; [15]
  % Inhibiton, CDK5: -4.7%
[12]; [16]
  % Inhibiton, CDK5: -6.5%
[12]; [17]
  % Inhibiton, CDK5: 11.7%
[13]
  % Inhibition PIK3CG: 45.3%
[14]; IV, 1 mg/kg
  AUC0−∞: 1743.83 ng·h/mL
  CL: 8.64 mL/min/kg
  Cmax: 439 ng/mL
  T1/2: 8.2 h
  Vss: 4.67 L/kg
[14]; PO, 10 mg/kg
  AUC0−∞: 15745 ng·h/mL and 15745.48 ng·h/mL
  Cmax: 1142.77 ng/mL
  F (oral bioavailability): 90%
  Tmax: 4.0 H
